Test results: patent publication EP0338042B1, “COMPOSITION AND METHOD FOR TREATING HEPATITIS VIRUS INFECTIONS USING 1-(2'-DEOXY-2'-FLUORO-BETA-D-ARABINOFURANOSYL)-5-ETHYLURACIL” (priority 1987, dated 1989)

Tests used:
[1] = test system: woodchuck hepatitis virus (WHV); test: Inhibition of WHV replication in chronically infected woodchucks (DNA polymerase activity); format: in vivo, woodchucks (Marmota monax)
Description: All woodchucks bearing chronic active hepatitis virus (Hantz, supra) were administered FMAU twice daily by interperitoneal injections of FMAU in the following dosages:
Studies were then undertaken to evaluate FMAU and FEAU in this animal model using woodchucks naturally chronically-infected with woodchuck hepatitis virus (24). It was assumed that these nucleosides would be anabolized to their nucleoside triphosphates within the animal. WHV replication was measured periodically by the endogenous DNA polymerase activity and by the detection of WHV DNA by the dot-blot hybridization assay. Three different dosages of FMAU and FEAU were investigated. FMAU at 2 mg/kg/day x 5, (given intraperitoneally TABLE VIII
In accordance with the procedures of Example 2, the FEAU inhibition of WHV replication was further studied at different doses administered orally to woodchucks through stomach tubes. Two groups of woodchucks with different initial WHV replication values were examined.
Seven woodchucks with high WHV replication were tested. High replication was defined as over 1000 counts per minute of DNA polymerase activity, and the mean replication was 1600.
Seven woodchucks with low WHV replication were tested. Low replication was defined as lower than 1000 counts per minute of DNA polymerase activity, and the mean replication was 600-800.

[2] = test system: HSV-1(F); test: Plaque reduction assay in Vero cells; format: cell-based; details: monkey
Source text: (§1) With FMAU as a lead compound, the syntheses of other 5-alkyl substituted 2′-fluoro-ara-uracils were undertaken (8, 9), including 1-(2′-deoxy-2′-fluoro-beta-D-arabinofuranosyl)-5-ethyluracil [FEAU].

[3] = test system: HSV-2(G); test: Plaque reduction assay in Vero cells; format: cell-based; details: monkey
Source text: as §1

[4] = test system: HL-60 CELLS; test: Inhibition of cell growth; format: cell-based; details: Homo sapiens, HL-60; read-out: ED50 FOR INHIBITING CELL GROWTH IN HL-60 CELLS
[5] = test system: Vero cells; test: Inhibition of cell growth; format: cell-based, African green monkey; details: Chlorocebus sabaeus, read-out: ED50 FOR INHIBITING CELL GROWTH IN VERO CELLS
[6] = test system: P-815 CELLS; test: Inhibition of thymidine incorporation into DNA; format: cell-based, rodent; details: Mus musculus, P815; read-out: ED50 FOR INHIBITING THYMIDINE INCORPORATION INTO DNA, P-815 CELLS
[7] = test system: L-1210 CELLS; test: Inhibition of thymidine incorporation into DNA; format: cell-based, rodent; details: Mus musculus, L1210; read-out: ED50 FOR INHIBITING THYMIDINE INCORPORATION INTO DNA, L-1210 CELLS
[8] = test system: RAT BONE MARROW CELLS; test: Inhibition of thymidine incorporation into DNA; format: cell-based; details: Bone marrow cell, read-out: ED50 FOR INHIBITING THYMIDINE INCORPORATION INTO DNA, RAT BONE MARROW CELLS
[9] = test system: L-1210; test: Incorporation of 2-14C-labeled nucleoside into DNA of cells; format: cell-based, rodent; details: FEAU also not detectable at 100 μM
Source text: (§2) There was no detectable incorporation of FEAU radioactivity into the DNA of either L-1210 or Vero cell lines, but substantial amounts of FMAU radioactivity were incorporated into the DNA of both cell lines. When HSV-1 infected Vero cells were exposed to ¹⁴C-labeled FEAU and FMAU, both nucleosides incorporated into the DNA of these virus-infected cells.

[10] = test system: HSV-1 INFECTED VERO CELLS; test: as above; format: cell-based, African green monkey
Source text: as §2

[11] = test system: VERO; test: as above; format: cell-based, African green monkey; details: FEAU also not detectable at 100 μM
Source text: as §2

[12] = test system: HSV-1(F); details: plaque reduction in Vero cells, cited from earlier work
[13] = test system: HSV-2(G); details: plaque reduction in Vero cells, cited from earlier work
[14] = test system: HSV-2 (STRAIN G); details: FMAU 0.5 MG/KG/DAY, cited from earlier work
[15] = in vivo experiments with mice; cited from earlier work
[16] = patients with advanced cancer, x 5; cited from earlier work
[17] = Toxicity in dogs
[18] = test system: simian varicella virus (SVV); test: Simian varicella virus infection in the African green monkey
[19] = 0.2 mg/kg/day, FMAU x 5, FEAU x 10

In the case of `Cc1cn([C@@H]2O[C@H](CO)[C@@H](O)[C@@H]2F)c(=O)[nH]c1=O` [FMAU, 1-(2'-deoxy-2'-fluoro-beta-D-arabinofuranosyl)-5-methyluracil, reference compound], the “suppression of viral replication” value [1, 19] is reported as “equally effective”, the toxicity [1, 19] is reported as “less severe and delayed toxicity” and the “WHV DNA polymerase activity” value ([1]; 2 mg/kg/day x 5, intraperitoneally) is reported as “complete suppression”. For the same compound, the toxicity ([1]; 2 mg/kg/day x 5, intraperitoneally, eventually lethal) was “severe CNS toxicity”, the “persistence of inhibition of WHV replication after cessation of treatment” value ([1]; i.p. 2 mg/kg per day for 7 days or 4 mg/kg per day for 5 days) was 20 to 50 days and the “woodchuck hepatitis virus DNA polymerase” value ([1]; i.p. twice daily, 2 mg/kg per day for 7 days or 4 mg/kg per day for 5 days, end of one week following dosage administrations) was “fallen to background levels”. For the same compound, the “toxicity (previous results)” value ([1]; woodchucks, previous results) was “lethal toxicity”, the “THER. INDEX ID₅₀/ED₉₀ HSV-1” value [2] was 67 and the “THER. INDEX ID₅₀/ED₉₀ HSV-2” value [3] was 31. It also gave an EC50 [4] of 15.4 µM, an EC50 [5] of 2.8 µM and an EC50 [6] of 14 µM. The EC50 [7] was 28 µM, the EC50 [8] was 8.9 µM and the “INCORPORATION INTO DNA AT 10μM, L-1210” value [9] was 0.69 p MOLE/10^6 CELLS/HR. For the same compound, the “incorporation into HSV-1-infected Vero cells compared with FEAU” value [10] was “seven-fold greater”, the “INCORPORATION INTO DNA AT 10μM, HSV-1 INFECTED VERO CELLS” value ([10]; [2-14C] labeled nucleoside) was 3.4 p MOLE/10^6 CELLS/HR and the “INCORPORATION INTO DNA AT 10μM, VERO” value [11] was 1.3 p MOLE/10^6 CELLS/HR. The EC50 ([12]; read-out: HSV-1(F) ED₅₀) was 0.01 µM, the EC90 ([12]; read-out: HSV-1(F) ED₉₀) was 0.042 µM and the EC50 ([13]; read-out: HSV-2(G) ED₅₀) was 0.023 µM. For the same compound, the EC90 ([13]; read-out: HSV-2(G) ED₉₀) was 0.09 µM, the MDD ([14]; twice a day for 4 days from 5 hr after inoculation, calculated on day 21) was 9.4 and the “% SURVIVORS” value ([14]; twice a day for 4 days) was 67%. For the same compound, the “%WT GAIN ON DAY 7” value ([14]; compared to day 1) was 1%, the “%WT GAIN ON DAY 14” value ([14]; compared to day 1) was 4% and the “%WT GAIN ON DAY 21” value ([14]; compared to day 1) was 5%. The “%WT GAIN ON DAY 30” value ([14]; compared to day 1) was 7%, the toxicity [15] was “relatively nontoxic” and the “intravenous dose with dose-limiting CNS toxicity” value [16] was 0.8 mg/kg/day. For the same compound, the neurotoxicity [17] was “very neurotoxic”, the lethal dose ([17]; FMAU i.v. x 5, FEAU x 10 (preliminary)) was 2.5 mg/kg/day and the minimal effective dose ([18]; Cercopithecine alphaherpesvirus 9, in Primates) was roughly 0.04 mg/kg/day. For the same compound, the “potency against SVV compared with FEAU” value ([18]; monkey, in vivo) was “about 40 fold”.
